Data as given in article PMC12332266 (Frontiers in Pharmacology, 2025).
Like-named read-outs stand apart in the source and are kept apart here.

How the values were obtained:
[1] = test system: hiPSC-CM (iCell Cardiomyocytes^2); experiment: Intracellular miRNA expression by RT-qPCR in hiPSC-CM pellets after 72-hour treatment; settings: for fold induction at 0.3 µM / fold induction at 1 µM / fold induction at 3 µM / fold induction at 10 µM: Homo sapiens; for fold induction at 0.3 µM / fold induction at 1 µM / fold induction at 3 µM / fold induction at 10 µM / hsa-miR-7-5p fold change, intracellular / hsa-miR-29a-5p fold change, intracellular / hsa-miR-126-3p fold change, intracellular / hsa-miR-133b fold change, intracellular / hsa-miR-146b-5p fold change, intracellular / hsa-miR-182-5p fold change, intracellular / hsa-miR-185-3p fold change, intracellular / hsa-miR-187-3p fold change, intracellular / hsa-miR-208b-3p fold change, intracellular / hsa-miR-365a-5p fold change, intracellular / hsa-miR-96-5p fold change, intracellular / hsa-miR-[…] change, intracellular: 72 h
Summary of the method: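 After 72-hour treatment and RTCA CardioECR assessment, total RNA from hiPSC-CM pellets was reverse transcribed, pre-amplified and quantified by TaqMan RT-qPCR against a 17-miRNA panel. Triplicates were pooled, so no statistical analysis was performed.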

[2] = ref extensive literature search, cited from earlier work
[3] = test system: hiPSC-CM (iCell Cardiomyocytes^2); experiment: RTCA CardioECR assessment (impedance and electrophysiology parameters); settings: for Cell index (CI) MEC: 72-hour treatment, lowest concentration causing at least 20% change from baseline; for RTCA, MEC (CI): change ≥20%, Table 2
Summary of the method: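 iCell^2 cardiomyocytes on fibronectin-coated ePlates monitored continuously by impedance for cell index, beating rate and amplitude. Field potential duration and spike amplitude were recorded from day 4–6 after monolayer formation. Data were double-normalized to DMSO control and baseline, with variability given as SD.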

[4] = read-out: hsa-miR-7-5p fold change
[5] = read-out: hsa-miR-29a-5p fold change
[6] = read-out: hsa-miR-146b-5p fold change
[7] = read-out: hsa-miR-187-3p fold change

With `O=c1[nH]cc(F)c(=O)[nH]1` [5-FluoroUracil] the “intracellular miRNA upregulation in hiPSC-CM, in words” value [1] was “smallest fold change”, the fold induction at 0.3 µM [1, 4] was 0.7 and the fold induction at 1 µM [1, 4] was 0.5. For the same molecule, the fold induction at 3 µM [1, 4] was 0.5, the fold induction at 10 µM [1, 4] was 0.7 and the fold induction at 0.3 µM [1, 5] was 0.6. For the same molecule, the fold induction at 1 µM [1, 5] was 0.5, the fold induction at 3 µM [1, 5] was 0.5 and the fold induction at 10 µM [1, 5] was 0.8. The fold induction at 0.3 µM [1, 6] was 0.6, the fold induction at 1 µM [1, 6] was 0.3 and the fold induction at 3 µM [1, 6] was 0.3. For the same molecule, the fold induction at 10 µM [1, 6] was 1.6, the fold induction at 0.3 µM [1, 7] was 1.2 and the fold induction at 1 µM [1, 7] was 1.2. The fold induction at 3 µM [1, 7] was 1.1, the fold induction at 10 µM [1, 7] was 0.5 and the Cmax total ([2]; Supplementary Table 1) was 4.6 µM. For the same molecule, the Cmax total ([2]; Table 1) was 4.60 µM, the “Cell index (CI) MEC” value ([3]; hiPSC-CM) was “ND (ND – not detected, magnitude of change was lower than 20%)” and the “changes in CI or BR and miRNA expression, in words” value ([3]; hiPSC-CM, 72 h, RTCA CardioECR and intracellular miRNA compared) was “did not induce either changes in CI or BR above 20% or miRNA expression above 2-fold change”. The “RTCA, MEC (CI)” value ([3]; hiPSC-CM) was “ND (ND – not detected, magnitude of change was lower than 20% for CI/BR)”.
In the case of `Cc1cn(-c2cc(NC(=O)c3ccc(C)c(Nc4nccc(-c5cccnc5)n4)c3)cc(C(F)(F)F)c2)cn1` [Nilotinib], the “intracellular miRNA upregulation in hiPSC-CM, in words” value [1] is reported as “smallest fold change”, the “miRNAs hiPSC-CM pellet, MEC overall” value [1] is reported as 0.3 µM and the “miRNAs upregulated at the MEC overall (hiPSC-CM pellet)” value [1] is reported as “miR-126-3p”. The “hsa-miR-7-5p fold change, intracellular” value ([1]; 0.01 µM) was 1.2, the “hsa-miR-29a-5p fold change, intracellular” value (shortened to “hsa-miR-29a-5p fold change”) ([1]; 0.01 µM) was 0.5 and the “hsa-miR-126-3p fold change, intracellular” value (from here on “hsa-miR-126-3p fold change”) ([1]; 0.01 µM) was 1.4. For the same molecule, the “hsa-miR-133b fold change, intracellular” value ([1]; 0.01 µM) was 0.3, the “hsa-miR-146b-5p fold change, intracellular” value (“hsa-miR-146b-5p fold change” for short) ([1]; 0.01 µM) was 0.2 and the “hsa-miR-182-5p fold change, intracellular” value (from here on “hsa-miR-182-5p fold change”) ([1]; 0.01 µM) was 0.3. The “hsa-miR-185-3p fold change, intracellular” value (“hsa-miR-185-3p fold change” for short) ([1]; 0.01 µM) was 0.7, the “hsa-miR-187-3p fold change, intracellular” value (“hsa-miR-187-3p fold change” for short) ([1]; 0.01 µM) was 0.7 and the “hsa-miR-208b-3p fold change, intracellular” value (“hsa-miR-208b-3p fold change” for short) ([1]; 0.01 µM) was 1.0. For the same molecule, the “hsa-miR-365a-5p fold change, intracellular” value (from here on “hsa-miR-365a-5p fold change”) ([1]; 0.01 µM) was 0.8, the “hsa-miR-7-5p fold change, intracellular” value ([1]; 0.1 µM) was 1.2 and the “hsa-miR-29a-5p fold change” value ([1]; 0.1 µM) was 0.2. The “hsa-miR-96-5p fold change, intracellular” value ([1]; 0.1 µM) was 0.3, the “hsa-miR-126-3p fold change” value ([1]; 0.1 µM) was 3.0 and the “hsa-miR-133b fold change, intracellular” value ([1]; 0.1 µM) was 0.2. The “hsa-miR-146b-5p fold change” value ([1]; 0.1 µM) was 0.2, the “hsa-miR-182-5p fold change” value ([1]; 0.1 µM) was 0.2 and the “hsa-miR-185-3p fold change” value ([1]; 0.1 µM) was 1.5. The “hsa-miR-187-3p fold change” value ([1]; 0.1 µM) was 0.7, the “hsa-miR-208b-3p fold change” value ([1]; 0.1 µM) was 1.1 and the “hsa-miR-365a-5p fold change” value ([1]; 0.1 µM) was 0.2. For the same molecule, the “hsa-miR-7-5p fold change, intracellular” value ([1]; 0.3 µM) was 0.5, the “hsa-miR-29a-5p fold change” value ([1]; 0.3 µM) was 0.2 and the “hsa-miR-126-3p fold change” value ([1]; 0.3 µM) was 4.3. The “hsa-miR-133b fold change, intracellular” value ([1]; 0.3 µM) was 0.4, the “hsa-miR-146b-5p fold change” value ([1]; 0.3 µM) was 0.2 and the “hsa-miR-182-5p fold change” value ([1]; 0.3 µM) was 0.7. For the same molecule, the “hsa-miR-185-3p fold change” value ([1]; 0.3 µM) was 0.7, the “hsa-miR-187-3p fold change” value ([1]; 0.3 µM) was 0.5 and the “hsa-miR-208b-3p fold change” value ([1]; 0.3 µM) was 0.5. For the same molecule, the “hsa-miR-365a-5p fold change” value ([1]; 0.3 µM) was 0.7, the “hsa-miR-7-5p fold change, intracellular” value ([1]; 1 µM) was 0.9 and the “hsa-miR-29a-5p fold change” value ([1]; 1 µM) was 0.4. For the same molecule, the “hsa-miR-96-5p fold change, intracellular” value ([1]; 1 µM) was 1.4, the “hsa-miR-126-3p fold change” value ([1]; 1 µM) was 5.5 and the “hsa-miR-133b fold change, intracellular” value ([1]; 1 µM) was 0.3. The “hsa-miR-146b-5p fold change” value ([1]; 1 µM) was 0.3, the “hsa-miR-182-5p fold change” value ([1]; 1 µM) was 0.4 and the “hsa-miR-185-3p fold change” value ([1]; 1 µM) was 0.3. The “hsa-miR-187-3p fold change” value ([1]; 1 µM) was 0.7, the “hsa-miR-208b-3p fold change” value ([1]; 1 µM) was 1.2 and the Cmax total ([2]; Supplementary Table 1) was 0.84 to 4.27 µM. For the same molecule, the Cmax total ([2]; Table 1) was 0.84 to 4.27 µM, the “Cell index (CI) MEC” value ([3]; hiPSC-CM) was “ND (ND – not detected, magnitude of change was lower than 20%)” and the “RTCA, MEC (CI)” value ([3]; hiPSC-CM) was “ND (ND – not detected, magnitude of change was lower than 20% for CI/BR)”. For the same molecule, the “Contractility Amplitude MEC” value ([3]; human, 72 h) was 0.1 µM and the “Spike Amplitude (SA) MEC” value ([3]; human, 72 h) was 0.01 µM.
In the case of `Cc1nc(Nc2ncc(C(=O)Nc3c(C)cccc3Cl)s2)cc(N2CCN(CCO)CC2)n1` [Dasatinib], the “miRNAs hiPSC-CM pellet, MEC overall” value [1] is reported as 0.3 µM, the “miRNAs upregulated at the MEC overall (hiPSC-CM pellet)” value [1] is reported as “miR-96-5p, miR-133b, miR-182-5p, miR-185-3p, miR-365a-5p” and the “hsa-miR-7-5p fold change, intracellular” value ([1]; 0.3 µM) is reported as 1.4. The “hsa-miR-96-5p fold change, intracellular” value ([1]; 0.3 µM) was 9.0, the “hsa-miR-126-3p fold change” value ([1]; 0.3 µM) was 1.6 and the “hsa-miR-133b fold change, intracellular” value ([1]; 0.3 µM) was 2.7. The “hsa-miR-146b-5p fold change” value ([1]; 0.3 µM) was 0.8, the “hsa-miR-182-5p fold change” value ([1]; 0.3 µM) was 2.5 and the “hsa-miR-185-3p fold change” value ([1]; 0.3 µM) was 6.4. For the same molecule, the “hsa-miR-187-3p fold change” value ([1]; 0.3 µM) was 1.7, the “hsa-miR-208b-3p fold change” value ([1]; 0.3 µM) was 1.2 and the “hsa-miR-365a-5p fold change” value ([1]; 0.3 µM) was 5.4. For the same molecule, the “hsa-miR-[…] change, intracellular” value ([1]; 0.3 µM) was 0.8, the “hsa-miR-7-5p fold change, intracellular” value ([1]; 1 µM) was 0.8 and the “hsa-miR-29a-5p fold change” value ([1]; 1 µM) was 3.6. For the same molecule, the “hsa-miR-96-5p fold change, intracellular” value ([1]; 1 µM) was 4.7, the “hsa-miR-126-3p fold change” value ([1]; 1 µM) was 2.1 and the “hsa-miR-133b fold change, intracellular” value ([1]; 1 µM) was 1.6. The “hsa-miR-146b-5p fold change” value ([1]; 1 µM) was 0.9, the “hsa-miR-182-5p fold change” value ([1]; 1 µM) was 0.9 and the “hsa-miR-185-3p fold change” value ([1]; 1 µM) was 1.5. For the same molecule, the “hsa-miR-187-3p fold change” value ([1]; 1 µM) was 0.5, the “hsa-miR-208b-3p fold change” value ([1]; 1 µM) was 1.2 and the “hsa-miR-365a-5p fold change” value ([1]; 1 µM) was 0.8. The “hsa-miR-[…] change, intracellular” value ([1]; 1 µM) was 0.8, the “hsa-miR-7-5p fold change, intracellular” value ([1]; 3 µM) was 0.9 and the “hsa-miR-29a-5p fold change” value ([1]; 3 µM) was 4.0. For the same molecule, the “hsa-miR-126-3p fold change” value ([1]; 3 µM) was 1.1, the “hsa-miR-133b fold change, intracellular” value ([1]; 3 µM) was 3.3 and the “hsa-miR-146b-5p fold change” value ([1]; 3 µM) was 6.4. The “hsa-miR-182-5p fold change” value ([1]; 3 µM) was 0.8, the “hsa-miR-185-3p fold change” value ([1]; 3 µM) was 7.9 and the “hsa-miR-187-3p fold change” value ([1]; 3 µM) was 1.4. The “hsa-miR-208b-3p fold change” value ([1]; 3 µM) was 1.2, the “hsa-miR-365a-5p fold change” value ([1]; 3 µM) was 0.7 and the “hsa-miR-[…] change, intracellular” value ([1]; 3 µM) was 0.8. The “hsa-miR-7-5p fold change, intracellular” value ([1]; 10 µM) was 0.5, the “hsa-miR-29a-5p fold change” value ([1]; 10 µM) was 7.4 and the “hsa-miR-96-5p fold change, intracellular” value ([1]; 10 µM) was 0.5. For the same molecule, the “hsa-miR-126-3p fold change” value ([1]; 10 µM) was 1.8, the “hsa-miR-133b fold change, intracellular” value ([1]; 10 µM) was 1.1 and the “hsa-miR-146b-5p fold change” value ([1]; 10 µM) was 0.4. For the same molecule, the “hsa-miR-182-5p fold change” value ([1]; 10 µM) was 0.4, the “hsa-miR-185-3p fold change” value ([1]; 10 µM) was 3.3 and the “hsa-miR-187-3p fold change” value ([1]; 10 µM) was 0.6. For the same molecule, the “hsa-miR-208b-3p fold change” value ([1]; 10 µM) was 1.6, the “hsa-miR-365a-5p fold change” value ([1]; 10 µM) was 3.9 and the “hsa-miR-[…] change, intracellular” value ([1]; 10 µM) was 0.7. For the same molecule, the Cmax total ([2]; Supplementary Table 1) was 0.97 µM, the Cmax total ([2]; Table 1) was 0.97 µM and the “Cell index (CI) MEC” value ([3]; hiPSC-CM) was 1 µM. The “RTCA, MEC (CI)” value ([3]; hiPSC-CM) was 1 µM, the “Beating Rate MEC” value ([3]; human, 72 h) was 0.3 µM and the “Beating rate (BR) MEC” value ([3]; human, 72 h) was 0.3 µM. For the same molecule, the “Cell Index MEC” value ([3]; human, 72 h) was 1 µM, the “Contractility Amplitude MEC” value ([3]; human, 72 h) was 10 µM and the “RTCA, MEC (BR)” value ([3]; human, 72 h) was 0.3 µM. The “Spike Amplitude (SA) MEC” value ([3]; human, 72 h) was 0.3 µM.
